Format in all cases: biochemical
For experiment [1], the target named is T1, human MMP-1 (amino acids 100-262) (Homo sapiens, UniProt P03956).
T1 construct: human MMP-1 (amino acids 100-262); made in house
T1 sequence (P03956 100-262): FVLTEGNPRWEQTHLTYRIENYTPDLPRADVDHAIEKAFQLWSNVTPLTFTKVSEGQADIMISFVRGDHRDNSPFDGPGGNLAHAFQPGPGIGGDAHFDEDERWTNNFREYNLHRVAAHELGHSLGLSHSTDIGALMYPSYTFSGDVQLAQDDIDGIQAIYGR
The experiment can be described thus: MMP dose response assay for determining IC50, MMP-1. Conditions: recombinant catalytic domain, fluorescent-quench substrate 100 nM. The protocol: (§1) MMP Dose Response Assay for Determining IC50
(§2) The following method was used for determining IC50 values of different inhibitor compounds against multiple MMP enzymes. Frozen stocks of recombinantly produced MMPs were prepared in assay buffer (50 mM HEPES pH 7.4, 10 mM CaCl2, 0.05% Brij-35). […] Enzyme concentrations in the assay were determined empirically and set such that proteolytic activity was maintained in a linear range over the time-course of the experiment. […] Each concentration for each test compound was tested in triplicate. MMP enzymes were equilibrated with compounds for 1 hour at room temperature, then a fluorescent-quench substrate (Acetyl-Cys(Eu)-Pro-Leu-Gly-Leu-Lys-(QSY7)-Ala-Arg-amide) was added to a final concentration of 100 nM. […] Data was analyzed by first calculating average background value from wells that contained only substrate, and this value was subtracted from the entire plate. The 100%, or maximum value, was determined by averaging control wells that contained enzyme, substrate and DMSO. For each well, the percent of control was calculated by dividing the well value by the average DMSO value obtained above.

The target in experiment [2] is T2, human MMP-2 (amino acids 1-660) (Homo sapiens, UniProt P08253).
T2 construct: human MMP-2 (amino acids 1-660); made in house
T2 sequence (P08253 110-660): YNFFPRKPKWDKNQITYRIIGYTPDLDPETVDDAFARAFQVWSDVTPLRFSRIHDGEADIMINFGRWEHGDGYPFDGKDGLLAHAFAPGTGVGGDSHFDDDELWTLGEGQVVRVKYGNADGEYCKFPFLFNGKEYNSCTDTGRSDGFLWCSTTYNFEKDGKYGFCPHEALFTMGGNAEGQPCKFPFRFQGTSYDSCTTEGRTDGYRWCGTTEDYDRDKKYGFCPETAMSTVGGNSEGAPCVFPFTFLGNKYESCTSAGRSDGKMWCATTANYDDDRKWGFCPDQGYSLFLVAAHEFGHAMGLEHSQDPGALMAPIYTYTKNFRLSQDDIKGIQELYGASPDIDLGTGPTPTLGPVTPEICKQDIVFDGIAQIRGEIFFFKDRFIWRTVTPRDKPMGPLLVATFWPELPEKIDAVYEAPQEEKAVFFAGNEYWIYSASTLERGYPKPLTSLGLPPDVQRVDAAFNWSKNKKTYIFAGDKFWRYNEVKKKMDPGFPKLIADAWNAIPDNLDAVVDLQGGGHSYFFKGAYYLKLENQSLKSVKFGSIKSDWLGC
Briefly: MMP dose response assay for determining IC50, MMP-2. Conditions: recombinant enzyme, fluorescent-quench substrate 100 nM; read-out: MMP-2. The protocol: as §1, §2

Experiment [3] addresses T3, human MMP-9 (amino acids 107-446) (Homo sapiens, UniProt P14780).
T3 construct: human MMP-9 (amino acids 107-446); made in house
The experiment can be described thus: MMP dose response assay for determining IC50, MMP-9. The protocol: as §1, §2

[4] abbreviates: recombinant enzyme, fluorescent-quench substrate 100 nM, read-out: MMP-9.

Several values for one entry are separate records, joined by “and”; a condition that tells them apart may be missing. Identical values can stand only once. Like-named read-outs stand apart in the source and are kept apart here.

T3 sequence (P14780 107-446): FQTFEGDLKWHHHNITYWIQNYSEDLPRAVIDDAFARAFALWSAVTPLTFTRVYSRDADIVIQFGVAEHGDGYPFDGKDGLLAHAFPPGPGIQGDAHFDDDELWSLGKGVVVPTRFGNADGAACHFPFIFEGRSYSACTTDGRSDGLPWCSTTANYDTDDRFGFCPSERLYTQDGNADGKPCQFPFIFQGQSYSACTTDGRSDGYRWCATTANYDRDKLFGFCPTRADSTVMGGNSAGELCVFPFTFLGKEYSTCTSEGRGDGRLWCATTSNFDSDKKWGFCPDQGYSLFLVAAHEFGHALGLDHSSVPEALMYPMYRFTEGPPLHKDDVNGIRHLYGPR

As to `CS(=O)(=O)N(C[C@H](O)C(=O)NO)c1ccc(Oc2ccccc2)cc1` [Example 12, N-Hydroxy (2S)-2-hydroxy-3-[N-(4-phenoxy)phenyl,N-methanesulfonylamino]propionamide], the IC50 in experiment [1] is greater than 10000 nM; in experiment [2] it was 306 nM and 189 nM; in experiment [3] (setting [4]), 49.7 nM and 29.2 nM.

For the molecule `CS(=O)(=O)N(C[C@@H](O)C(=O)NO)c1ccc(Oc2ccc(Cl)cc2)cc1` [Example 13, N-Hydroxy (2R)-2-hydroxy-3-{N-[4-(4-chlorophenoxy)phenyl],N-methanesulfonylamino}propionamide], the IC50 in experiment [1] was 9680 nM and 5430 nM; in experiment [2] it was 24.1 nM and 44.9 nM; in experiment [3] (setting [4]) it was 5.57 nM and 7.16 nM.

Turning to `Cc1ccc(Oc2ccc(N(C[C@H](O)C(=O)NO)S(=O)(=O)Cc3ccccc3)cc2)cc1` [Example 14, N-Hydroxy (2S)-2-hydroxy-3-{N-[4-(4-methylphenoxy)phenyl],N-phenylmethylsulfonylamino}propionamide], the IC50 in experiment [1] was greater than 10000 nM; in experiment [2], 582 nM; in experiment [3] (setting [4]) it was 92.9 nM.

Regarding `CCCS(=O)(=O)N(C[C@H](O)C(=O)NO)c1ccc(Oc2ccc(C)cc2)cc1` [Example 15, N-Hydroxy (2S)-2-hydroxy-3-{N-[4-(4-methylphenoxy)phenyl],N-(1-propyl)sulfonylamino}propionamide], the figures for the IC50 in experiment [1], in experiment [2] and in experiment [3] (setting [4]) were greater than 10000 nM, 509 nM and 124 nM, respectively.

As for `CO[C@H](CN(c1ccc(Oc2ccc(C)cc2)cc1)S(C)(=O)=O)C(=O)NO` [Example 17, N-Hydroxy (2R)-2-methoxy-3-{N-[4-(4-methylphenoxy)phenyl],N-methanesulfonylamino}propionamide], the IC50 is greater than 10000 nM in experiment [1], 101 nM in experiment [2] and 12.7 nM in experiment [3] (MMP-9 (nM)).

For the molecule `Cc1ccc(Oc2ccc(N(C[C@H](NC(C)C)C(=O)NO)S(C)(=O)=O)cc2)cc1` [Example 18, N-Hydroxy (2S)-3-{N-[4-(4-methylphenoxy)phenyl],N-methanesulfonylamino}-2-[(2-propyl)amino]propionamide], the IC50 in experiment [1] is > 10000 nM and 9560 nM and 4170 nM and 8390 nM and 6950 nM; in experiment [2], 3.63 nM and 2.51 nM and 3.25 nM and 5.11 nM and 5.46 nM and 4.21 nM; in experiment [3] (setting [4]), 0.61 nM and 0.75 nM and 0.3 nM and 0.41 nM and 0.45 nM.

As for `CCS(=O)(=O)N(C[C@H](O)C(=O)NO)c1ccc(Oc2ccc(C)cc2)cc1` [Example 20, N-Hydroxy (2S)-2-hydroxy-3-{N-[4-(4-methylphenoxy)phenyl],N-ethylsulfonylamino}propionamide], the IC50 in experiment [1] was greater than 10000 nM; in experiment [2], 115 nM and 169 nM; in experiment [3] (setting [4]), 21.4 nM and 33.6 nM.

For the molecule `Cc1ccc(Oc2ccc(N(C[C@@H](OCc3ccccc3)C(=O)NO)S(C)(=O)=O)cc2)cc1` [Example 22, N-Hydroxy (2R)-2-benzyloxy-3-{N-[4-(4-methylphenoxy)phenyl],N-methanesulfonylamino}propionamide], the IC50 in experiment [1] was greater than 10000 nM; in experiment [2], 210 nM and 342 nM; in experiment [3] (setting [4]), 10.8 nM and 41.6 nM.

For the molecule `Cc1ccc(Oc2ccc(N(C[C@H](OCc3ccccc3)C(=O)NO)S(C)(=O)=O)cc2)cc1` [Example 23, N-Hydroxy (2S)-2-benzyloxy-3-{N-[4-(4-methylphenoxy)phenyl],N-methanesulfonylamino}propionamide], the IC50 in experiment [1] is greater than 10000 nM; in experiment [2], 56.2 nM and 90.4 nM; in experiment [3] (setting [4]), 2.6 nM and 9.22 nM.

For the molecule `Cc1ccc(Oc2ccc(N(C[C@@H](NC(C)C)C(=O)NO)S(C)(=O)=O)cc2)cc1` [Example 24, N-Hydroxy (2R)-3-{N-[4-(4-methylphenoxy)phenyl],N-methanesulfonylamino}-2-(2-propyl)aminopropionamide], the IC50 in experiment [1] was greater than 10000 nM; in experiment [2] it was 187 nM and 168 nM; in experiment [3] (setting [4]), 37.8 nM and 24.9 nM.

As for `Cc1ccc(Oc2ccc(N(C[C@H](NCc3ccccc3)C(=O)NO)S(C)(=O)=O)cc2)cc1` [Example 25, N-Hydroxy (2S)-2-benzylamino-3-{N-[4-(4-methylphenoxy)phenyl],N-methanesulfonylamino}propionamide], the results for the IC50 in experiment [1], in experiment [2] and in experiment [3] (setting [4]) were greater than 10000 nM, 202 nM and 7.16 nM, respectively.

As for `Cc1ccc(Oc2ccc(N(C[C@@H](NCc3ccccc3)C(=O)NO)S(C)(=O)=O)cc2)cc1` [Example 26, N-Hydroxy (2R)-2-benzylamino-3-{N-[4-(4-methylphenoxy)phenyl],N-methanesulfonylamino}propionamide], the IC50 in experiment [1] was greater than 10000 nM; in experiment [2], 54.8 nM; in experiment [3] (setting [4]) it was 93.3 nM.

For the molecule `Cc1ccc(Oc2ccc(N(C[C@H](C(=O)NO)N3CCOCC3)S(C)(=O)=O)cc2)cc1` [Example 28, N-Hydroxy (2R)-3-{N-[4-(4-methylphenoxy)phenyl],N-methanesulfonylamino}-2-(morpholin-4-yl)propionamide], the IC50 was greater than 10000 nM in experiment [1], 1320 nM in experiment [2] and 295 nM in experiment [3] (setting [4]).

Regarding `Cc1ccc(Oc2ccc(N(C[C@H](N)C(=O)NO)S(C)(=O)=O)cc2)cc1` [Example 29, N-Hydroxy (2S)-2-amino-3-{N-[4-(4-methylphenoxy)phenyl],N-methanesulfonylamino}propionamide], the IC50 in experiment [1] is greater than 10000 nM; in experiment [2], 670 nM; in experiment [3] (setting [4]) it was 120 nM.

For the molecule `Cc1ccc(Oc2ccc(N(C[C@H](O)C(=O)NO)S(=O)(=O)Cc3ccncc3)cc2)cc1` [Example 31, N-Hydroxy (2S)-2-hydroxy-3-{N-[4-(4-methylphenoxy)phenyl],N-(pryidin-4-yl)methylsulfonylamino}propionamide], the results for the IC50 in experiment [1], in experiment [2] and in experiment [3] (setting [4]) were greater than 10000 nM, 344 nM and 54.2 nM, respectively.

Take `Cc1ccc(Oc2ccc(N(C[C@H](O)C(=O)NO)S(=O)(=O)Cc3cccnc3)cc2)cc1` [Example 32, N-Hydroxy (2S)-2-hydroxy-3-{N-[4-(4-methylphenoxy)phenyl],N-(pryidin-3-yl)methylsulfonylamino}propionamide]: the IC50 in experiment [1] is greater than 10000 nM; in experiment [2], 401 nM; in experiment [3] (setting [4]), 68.7 nM.

In the case of `Cc1ccc(Oc2ccc(N(C[C@H](NCc3ccncc3)C(=O)NO)S(C)(=O)=O)cc2)cc1` [Example 33, N-Hydroxy (2S)-3-{N-[4-(4-methylphenoxy)phenyl],N-methanesulfonylamino}-2-(pyridine-4-yl)methylaminopropionamide], the IC50 in experiment [1] was greater than 10000 nM; in experiment [2] it was 9.53 nM; in experiment [3] (setting [4]), 1.77 nM.

For `Cc1ccc(Oc2ccc(N(C[C@H](NCc3ccccn3)C(=O)NO)S(C)(=O)=O)cc2)cc1` [Example 34, N-Hydroxy (2S)-3-{N-[4-(4-methylphenoxy)phenyl],N-methanesulfonylamino}-2-(pyridin2-yl)methylaminopropionamide], the IC50 in experiment [1] is greater than 10000 nM; in experiment [2] it was 83.4 nM; in experiment [3] (setting [4]), 22.9 nM.

As for `Cc1ccc(Oc2ccc(N(C[C@H](NCc3cccnc3)C(=O)NO)S(C)(=O)=O)cc2)cc1` [Example 35, N-Hydroxy (2S)-3-{N-[4-(4-methylphenoxy)phenyl],N-methanesulfonylamino}-2-(pyridine-3-yl)methylaminopropionamide], the figures for the IC50 in experiment [1], in experiment [2] and in experiment [3] (setting [4]) were greater than 10000 nM, 16.8 nM and 2.84 nM, respectively.

Consider `Cc1ccc(Oc2ccc(N(C[C@H](NCC(C)C)C(=O)NO)S(C)(=O)=O)cc2)cc1` [Example 36, N-Hydroxy (2S)-3-{N-[4-(4-methylphenoxy)phenyl],N-methanesulfonylamino}-2-(2-methylpropyl)aminopropionamide], for which the results for the IC50 in experiment [1], in experiment [2] and in experiment [3] (setting [4]) were 9220 nM, 11.4 nM and 1.27 nM, respectively.

As to `Cc1ccc(Oc2ccc(N(C[C@H](NC3CCCC3)C(=O)NO)S(C)(=O)=O)cc2)cc1` [Example 37, N-Hydroxy (2S)-2-cyclopentylamino-3-{N-[4-(4-methylphenoxy)phenyl],N-methanesulfonylamino}propionamide], the IC50 in experiment [1] was greater than 10000 nM; in experiment [2], 9.98 nM; in experiment [3] (setting [4]), 1.69 nM.
